Measured values: patent publication US12064407B2 (priority 2017, dated 2024)
Like-named read-outs stand apart in the source and are kept apart here.

What was measured:
CaV1.2 CCAT = conditions: 2.5 mM EGTA; 65 mM KCI; 100 μM glutamate; cited from earlier work
CTXLP = test: Endogenous CTXLP in SVGA astrocytes treated with gambogic acid; type: cell-based, human; conditions: SVGA cells, gambogic acid 0.25 and 0.5 μM
Description: FIG. 57 depicts that endogenous levels of CTXLP in human astrocytes can be depleted in the presence of gambogic acid. Human astrocytic cell line SVGA were treated with increasing doses of gambogic acid in the low micromolar range (0.25 and 0.5 μM).

NOGO-A [1] = conditions: 24 hours, GA 0.1, 0.25, 1 and 2.5 μM
Description: The ERVK-expressing NCCIT teratocarcinoma cell line was grown in a monolayer in RMPI 1640 media supplemented with FetalGro. Cells were treated for 24 hours with increasing doses of gambogic acid (GA, 0.1, 0.25, 1 and 2.5 μM). Cells were collected, protein extracted, and western blot performed to measure the expression of ERVK CTXLP, CaV2.2 C-terminal calcium channel-associated transcriptional regulator (CaV2.2 CCAT) and NOGO-A, as compared to β-actin loading control.

ERVK CTXLP [2] = conditions: ReNcell CX neurospheres, 24 hours, 1 ng/ml TNFα; for TNFα-induced CTXLP expression in human neurospheres: 0.5 μM GA
Description: (§1) The ReNcell CX neuroprogenitor cell line was grown in suspension to produce human neurospheres (approximately 0.5 mm diameter). Neurospheres were treated for 24 hours in neurobasal media alone, or with or without 1 ng/ml TNFα and/or 0.5 μM gambogic acid (GA). Cells were collected, protein extracted, and western blot performed to measure the expression of soluble (standard lysis) and insoluble (RIPA lysis) proteins for ERVK CTXLP, CaV2.2 C-terminal calcium channel-associated transcriptional regulator (CaV2.2 CCAT) and NOGO-A, as compared to β-actin loading control.

NOGO-A [3] = conditions: ReNcell CX neurospheres, 24 hours, 1 ng/ml TNFα; for TNFα-induced NOGO-A expression in human neurospheres: 0.5 μM GA
Description: as §1

[4] = tested on: interferon response elements (ISREs) within the ERVK promoter (5′ LTR); type: binding, human
ERVK CTXLP [5] = conditions: ReNcell-derived neurons, 24 hours, n=1
Description: ReNcell-derived neurons were treated with increasing doses of pro-inflammatory cytokines TNFα or LIGHT for 24 hours.

[6] = tested on: CaV2.2 calcium channel-associated transcription regulator (CCAT); type: cell-based, human
NF-κB p65 [7] = type: cell-based
IRF7 = type: cell-based
NF-κB p65 [8] = type: cell-based; remark: listed apart in the source
[9] = tested on: NF-κB p65 and p50 proteins; type: cell-based, human
NOGO-A [10] = target: T1, NOGO-A (Homo sapiens, UniProt Q9NQC3); conditions: patients with ALS, intravenous infusions; cited from earlier work
T1 construct: host or cells: ALS patients (clinical trials cited from the literature)
T1 sequence (Q9NQC3 1-1192): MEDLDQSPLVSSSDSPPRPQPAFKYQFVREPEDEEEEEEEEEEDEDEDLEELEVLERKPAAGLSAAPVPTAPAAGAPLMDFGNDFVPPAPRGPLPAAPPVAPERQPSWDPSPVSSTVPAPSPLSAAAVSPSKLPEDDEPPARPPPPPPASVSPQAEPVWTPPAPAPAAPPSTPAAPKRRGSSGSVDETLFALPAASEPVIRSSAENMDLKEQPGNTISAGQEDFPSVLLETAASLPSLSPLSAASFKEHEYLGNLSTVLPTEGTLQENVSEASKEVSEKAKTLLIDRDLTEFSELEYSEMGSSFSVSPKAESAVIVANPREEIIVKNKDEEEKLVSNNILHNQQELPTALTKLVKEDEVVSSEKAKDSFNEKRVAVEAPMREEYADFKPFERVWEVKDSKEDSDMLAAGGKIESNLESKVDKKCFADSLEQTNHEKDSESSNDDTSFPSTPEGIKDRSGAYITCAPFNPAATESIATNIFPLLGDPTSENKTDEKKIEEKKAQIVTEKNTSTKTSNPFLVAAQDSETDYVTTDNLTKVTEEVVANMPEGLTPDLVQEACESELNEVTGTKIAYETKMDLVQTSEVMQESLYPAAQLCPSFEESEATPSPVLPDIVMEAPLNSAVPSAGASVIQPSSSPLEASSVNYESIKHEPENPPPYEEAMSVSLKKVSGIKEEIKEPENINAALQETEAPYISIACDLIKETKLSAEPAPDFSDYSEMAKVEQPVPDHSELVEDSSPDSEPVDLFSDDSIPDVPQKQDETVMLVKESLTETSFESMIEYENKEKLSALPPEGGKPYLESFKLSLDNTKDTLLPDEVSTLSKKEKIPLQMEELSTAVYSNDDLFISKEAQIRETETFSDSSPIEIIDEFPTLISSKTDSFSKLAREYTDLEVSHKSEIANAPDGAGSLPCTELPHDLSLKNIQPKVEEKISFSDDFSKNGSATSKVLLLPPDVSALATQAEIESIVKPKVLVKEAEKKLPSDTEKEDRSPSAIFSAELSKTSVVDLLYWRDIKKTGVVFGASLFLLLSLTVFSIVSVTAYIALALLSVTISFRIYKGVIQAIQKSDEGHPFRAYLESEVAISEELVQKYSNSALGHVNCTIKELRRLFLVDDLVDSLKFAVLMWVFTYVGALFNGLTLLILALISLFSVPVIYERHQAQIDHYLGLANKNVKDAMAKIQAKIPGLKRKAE

O=C(O)CN(CCOCCOCCN(CC(=O)O)CC(=O)O)CC(=O)O [EGTA]
CaV1.2 CCAT nuclear localization / nuclear CCAT levels in neurons (CaV1.2 CCAT): promote

CC(C)=CCC[C@]1(C)C=Cc2c(O)c3c(c(CC=C(C)C)c2O1)O[C@]12C(=C[C@@H]4C[C@H]1C(C)(C)O[C@@]2(C/C=C(/C)C(=O)O)C4=O)C3=O [Gambogic acid, gambogic acid]
endogenous levels of CTXLP in human astrocytes (CTXLP): depleted | NOGO-A expression in NCCIT cells (NOGO-A [1]): potent inhibitor of Nogo-A | NOGO-A expression in NCCIT cells (NOGO-A [1]; listed as GA): dose-dependently reduces | TNFα-induced CTXLP expression in human neurospheres (ERVK CTXLP [2]): blocks | TNFα-induced CTXLP expression in human neurospheres (ERVK CTXLP [2]; listed as gambogic acid): reduce inducible CTXLP expression | TNFα-induced NOGO-A expression in human neurospheres (NOGO-A [3]; listed as GA): blocked | TNFα-induced NOGO-A expression in human neurospheres (NOGO-A [3]; listed as gambogic acid): ameliorate

[Cl-].[K+] [KCI]
CaV1.2 CCAT nuclear localization / nuclear CCAT levels in neurons (CaV1.2 CCAT): decreased nuclear CCAT levels

[Ca+2].[Cl-].[Cl-] [calcium chloride]
caspase-3 expression in CTXLP-treated SVGA cells in the presence of excess calcium (SVGA cells): blocked

N[C@@H](CCC(=O)O)C(=O)O [glutamate]
CaV1.2 CCAT nuclear localization / nuclear CCAT levels in neurons (CaV1.2 CCAT): decreased nuclear CCAT levels

TNFα
CTXLP chromatin binding on cytokine stimulation [4]: Notable increase | CTXLP expression in neurospheres on TNFα (ERVK CTXLP [2]): enhances | NOGO-A expression in neurospheres on TNFα (NOGO-A [3]): enhances | cytokine dose giving optimal enhancement of CTXLP expression (90 kDa form) (ERVK CTXLP [5]): 1 ng/mL

B1: ERVK SU: ERVK envelope surface unit protein devoid of the CTXLP domain (SEQ ID NO: 3) (protein)
chain: MNPSEMQRKAPPRRRRHRNRAPLTHKMNKMVTSEEQMKLPSTKKAEPPTWAQLKKLTQLATKYLENTKVTQTPESMLLAALMIVSMVVSLPMPAGAAAANYTYWAYVPFPPLIRAVTWMDNPIEIYVNDSVWVPGPTDDCCPAKPEEEGMMINISIGYRYPPICLGRAPGCLMPAVQNWLVEVPTVSPISRFTYHMVSGMSLRPRVNYLQDFSYQRSLKFRPKGKPCPKEIPKESKNTEVLVWEECVANSAVILQNNEFGTLIDWAPRGQFYHNCSGQTQSCPSAQVSPAVDSDLTESLDKHKHKKLQSFYPWEWGEKGISTARPKIISPVSGPEHPELWRLTVASHHIRIWSGNQTLETRDRKPFYTIDLNSSLTVPLQSCVKPPYMLVVGNIVIKPDSQTITCENCRLLTCIDSTFNWQHRILLVRAREGVWIPVSMDRPWEASPSVHILTEVLKGVLNRSKR
modifications: Endogenous retrovirus K (from homo sapiens)
CaV2.2 CCAT (75 kDa) expression in SVGA cells [6]: not | mRNA expression of NF-κB p65 (NF-κB p65 [7]): marked increase | mRNA expression of IRF7 (IRF7): neither protein was able to trigger an upregulation | NF-κB p65 protein expression (NF-κB p65 [8]): unable | NF-κB p65 and p50 protein expression [9]: not | continued replication / cell density at later time points (SVGA cells): able to continue to replicate

B2: LIGHT: lymphotoxin-like inducible member of the TNF superfamily protein, pro-inflammatory cytokine (protein, UniProt O43557 83-240, looked up)
Tumor necrosis factor ligand …: LIQERRSHEVNPAAHLTGANSSLTGSGGPLLWETQLGLAFLRGLSYHDGALVVTKAGYYYIYSKVQLGGVGCPLGLASTITHGLYKRTPRYPEELELLVSQQSPCGRATSSSRVWWDSSFLGGVVHLEAGEKVVVRVLDERLVRLRDGTRSYFGAFMV
cytokine dose giving optimal enhancement of CTXLP expression (90 kDa form) (ERVK CTXLP [5]): 10 ng/mL

B3: Ozanezumab: human anti-Nogo-A antibody from GlaxoSmithKline (antibody, chains of the INN, looked up, V domains shown)
VH: QVQLVQSGAEVKKPGASVKVSCKASGYTFTSYWMHWVRQAPGQGLEWIGNINPSNGGTNYNEKFKSKATMTRDTSTSTAYMELSSLRSEDTAVYYCELMQGYWGQGTLVTVSS
VL: DIVMTQSPLSNPVTLGQPVSISCRSSKSLLYKDGKTYLNWFLQRPGQSPQLLIYLMSTRASGVPDRFSGGGSGTDFTLKISRVEAEDVGVYYCQQLVEYPLTFGQGTKLEIK
outcome of Phase II clinical ALS trials (NOGO-A [10]): negative results
